Measurements reported in publication PMC8213057, “Targeting ALK2: An Open Science Approach to Developing Therapeutics for the Treatment of Diffuse Intrinsic Pontine Glioma” (Journal of Medicinal Chemistry, 2020).

What was measured:
ALK3/BMPR1A = target: T1, ALK3/BMPR1A (Homo sapiens, UniProt P36894); experiment: 375-member kinase panel; assay type: biochemical; settings: Run 1, Run 2; for % enzyme activity: 1 μM; for remaining activity at 1 µM: read-out: % enzyme activity, 1 μM
T1 construct: purchased Reaction Biology Corporation

EPHA6 = target: T2, EPHA6 (Homo sapiens, UniProt Q9UF33); experiment: biochemical; settings: read-out: % enzyme activity, 1 μM; Run 1, Run 2
T2 sequence (Q9UF33 23-1036): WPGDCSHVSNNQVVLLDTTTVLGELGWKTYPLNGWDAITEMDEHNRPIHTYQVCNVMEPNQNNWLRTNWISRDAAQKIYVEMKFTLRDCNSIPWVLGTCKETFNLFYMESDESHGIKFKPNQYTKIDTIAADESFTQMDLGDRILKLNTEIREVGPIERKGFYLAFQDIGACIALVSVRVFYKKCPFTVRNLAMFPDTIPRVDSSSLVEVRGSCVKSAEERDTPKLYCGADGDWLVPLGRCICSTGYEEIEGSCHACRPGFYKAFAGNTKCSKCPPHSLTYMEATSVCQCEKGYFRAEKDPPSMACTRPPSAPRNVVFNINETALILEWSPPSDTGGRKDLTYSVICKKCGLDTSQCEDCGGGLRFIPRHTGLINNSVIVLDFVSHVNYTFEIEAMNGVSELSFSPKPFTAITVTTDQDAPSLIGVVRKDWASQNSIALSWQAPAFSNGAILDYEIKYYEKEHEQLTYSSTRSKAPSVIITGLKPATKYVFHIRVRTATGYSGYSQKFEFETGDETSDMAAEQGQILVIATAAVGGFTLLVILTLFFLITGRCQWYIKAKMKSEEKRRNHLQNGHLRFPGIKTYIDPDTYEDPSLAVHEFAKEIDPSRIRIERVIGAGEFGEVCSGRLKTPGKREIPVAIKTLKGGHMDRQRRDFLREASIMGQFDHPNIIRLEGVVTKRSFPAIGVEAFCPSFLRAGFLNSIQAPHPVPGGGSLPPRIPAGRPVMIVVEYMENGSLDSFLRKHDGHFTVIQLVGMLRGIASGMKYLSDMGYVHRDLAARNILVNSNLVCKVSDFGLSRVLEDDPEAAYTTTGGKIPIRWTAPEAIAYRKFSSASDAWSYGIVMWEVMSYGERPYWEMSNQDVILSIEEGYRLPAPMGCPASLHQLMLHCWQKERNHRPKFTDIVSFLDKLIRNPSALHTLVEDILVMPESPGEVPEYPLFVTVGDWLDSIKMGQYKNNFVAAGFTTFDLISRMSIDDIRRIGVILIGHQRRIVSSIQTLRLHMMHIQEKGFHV

FER = FER (Homo sapiens, UniProt P16591); experiment: biochemical; settings: read-out: % enzyme activity, 1 μM; Run 1, Run 2
IKKe/IKBKE = target: T3, IKKe/IKBKE (Homo sapiens, UniProt Q14164); settings: 1 μM; Run 1, Run 2
T3 sequence (Q14164 1-716): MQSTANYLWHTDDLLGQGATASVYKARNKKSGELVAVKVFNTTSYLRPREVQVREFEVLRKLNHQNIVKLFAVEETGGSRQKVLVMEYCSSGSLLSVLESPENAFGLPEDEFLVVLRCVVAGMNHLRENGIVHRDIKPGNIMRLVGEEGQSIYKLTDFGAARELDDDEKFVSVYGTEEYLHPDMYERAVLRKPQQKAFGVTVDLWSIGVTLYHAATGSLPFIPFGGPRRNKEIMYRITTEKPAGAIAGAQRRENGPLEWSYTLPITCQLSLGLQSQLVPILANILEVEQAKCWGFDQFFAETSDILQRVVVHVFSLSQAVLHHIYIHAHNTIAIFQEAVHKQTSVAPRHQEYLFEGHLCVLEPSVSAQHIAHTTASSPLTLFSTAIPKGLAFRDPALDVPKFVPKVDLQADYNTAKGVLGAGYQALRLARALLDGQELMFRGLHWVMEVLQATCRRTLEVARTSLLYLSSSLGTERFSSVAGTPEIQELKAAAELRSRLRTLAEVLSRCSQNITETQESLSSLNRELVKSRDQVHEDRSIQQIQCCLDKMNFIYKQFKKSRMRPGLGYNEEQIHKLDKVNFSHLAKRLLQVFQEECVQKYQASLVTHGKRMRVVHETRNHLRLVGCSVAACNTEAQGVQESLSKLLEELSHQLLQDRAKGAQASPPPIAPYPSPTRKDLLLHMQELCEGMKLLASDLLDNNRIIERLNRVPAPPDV

LRRK2 = LRRK2 (Homo sapiens, UniProt Q5S007); settings: 1 μM; Run 1, Run 2
EPHB1 = target: T4, EPHB1 (Homo sapiens, UniProt P54762); settings: 1 μM; Run 1, Run 2
T4 sequence (P54762 18-984): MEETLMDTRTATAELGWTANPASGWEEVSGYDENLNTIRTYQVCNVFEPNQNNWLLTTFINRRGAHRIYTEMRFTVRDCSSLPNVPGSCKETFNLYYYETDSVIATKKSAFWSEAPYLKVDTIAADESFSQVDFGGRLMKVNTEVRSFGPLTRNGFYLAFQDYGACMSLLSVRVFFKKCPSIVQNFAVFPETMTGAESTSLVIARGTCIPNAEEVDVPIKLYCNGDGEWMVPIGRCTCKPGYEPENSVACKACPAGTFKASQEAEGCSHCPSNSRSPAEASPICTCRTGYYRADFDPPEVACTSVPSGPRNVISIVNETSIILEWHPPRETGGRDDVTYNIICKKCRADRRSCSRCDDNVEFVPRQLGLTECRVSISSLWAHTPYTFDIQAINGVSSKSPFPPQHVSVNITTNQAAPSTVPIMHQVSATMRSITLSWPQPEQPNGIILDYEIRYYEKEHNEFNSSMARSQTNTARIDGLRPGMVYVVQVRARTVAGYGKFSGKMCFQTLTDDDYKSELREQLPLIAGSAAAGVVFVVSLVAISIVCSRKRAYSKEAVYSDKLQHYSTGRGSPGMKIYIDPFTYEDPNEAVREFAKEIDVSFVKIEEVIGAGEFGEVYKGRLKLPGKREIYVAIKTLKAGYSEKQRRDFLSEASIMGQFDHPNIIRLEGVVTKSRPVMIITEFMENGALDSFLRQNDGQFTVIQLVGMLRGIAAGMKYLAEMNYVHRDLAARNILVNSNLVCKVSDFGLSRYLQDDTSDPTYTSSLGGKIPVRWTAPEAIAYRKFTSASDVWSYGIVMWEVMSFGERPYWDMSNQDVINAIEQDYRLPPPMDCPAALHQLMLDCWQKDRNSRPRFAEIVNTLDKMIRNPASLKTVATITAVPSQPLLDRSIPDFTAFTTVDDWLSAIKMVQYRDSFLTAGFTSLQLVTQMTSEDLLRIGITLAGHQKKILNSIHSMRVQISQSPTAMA

T1 sequence (P36894 24-532): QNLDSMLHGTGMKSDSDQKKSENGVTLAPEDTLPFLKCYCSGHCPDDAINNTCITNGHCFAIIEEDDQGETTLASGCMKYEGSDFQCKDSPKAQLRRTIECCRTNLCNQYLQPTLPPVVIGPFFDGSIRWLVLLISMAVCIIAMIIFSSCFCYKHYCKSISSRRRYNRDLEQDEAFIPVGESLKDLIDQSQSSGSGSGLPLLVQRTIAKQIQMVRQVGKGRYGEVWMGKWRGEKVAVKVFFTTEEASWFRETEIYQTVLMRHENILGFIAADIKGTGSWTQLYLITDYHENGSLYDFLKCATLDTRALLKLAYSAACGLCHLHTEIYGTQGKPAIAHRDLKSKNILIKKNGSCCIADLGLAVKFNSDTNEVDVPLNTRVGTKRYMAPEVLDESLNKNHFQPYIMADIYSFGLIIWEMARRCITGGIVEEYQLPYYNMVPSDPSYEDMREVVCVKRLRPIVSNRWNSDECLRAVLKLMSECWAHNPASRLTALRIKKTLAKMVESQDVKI
Chain of FER (P16591 whole entry): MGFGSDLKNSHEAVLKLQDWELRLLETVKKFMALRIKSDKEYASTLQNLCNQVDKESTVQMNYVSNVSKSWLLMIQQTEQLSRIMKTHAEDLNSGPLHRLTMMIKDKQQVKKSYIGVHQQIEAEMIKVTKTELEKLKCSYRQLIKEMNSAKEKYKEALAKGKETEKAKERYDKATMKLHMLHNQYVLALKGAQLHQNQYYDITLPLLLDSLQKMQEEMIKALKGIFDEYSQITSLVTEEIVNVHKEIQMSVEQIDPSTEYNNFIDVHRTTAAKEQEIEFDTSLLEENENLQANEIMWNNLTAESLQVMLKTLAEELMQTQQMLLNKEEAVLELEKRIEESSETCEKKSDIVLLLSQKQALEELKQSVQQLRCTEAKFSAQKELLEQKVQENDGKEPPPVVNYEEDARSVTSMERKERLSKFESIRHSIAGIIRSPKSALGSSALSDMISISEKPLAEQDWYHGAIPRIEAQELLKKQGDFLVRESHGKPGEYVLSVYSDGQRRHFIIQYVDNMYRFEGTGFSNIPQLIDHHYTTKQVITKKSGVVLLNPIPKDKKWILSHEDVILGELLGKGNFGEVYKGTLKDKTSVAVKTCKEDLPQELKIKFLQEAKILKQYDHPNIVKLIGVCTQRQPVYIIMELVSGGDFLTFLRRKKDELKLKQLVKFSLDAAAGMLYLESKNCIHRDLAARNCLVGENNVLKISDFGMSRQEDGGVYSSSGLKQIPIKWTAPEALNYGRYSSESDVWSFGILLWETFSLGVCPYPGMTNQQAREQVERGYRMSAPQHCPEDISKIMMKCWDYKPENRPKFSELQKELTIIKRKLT
Chain of LRRK2 (Q5S007 whole entry): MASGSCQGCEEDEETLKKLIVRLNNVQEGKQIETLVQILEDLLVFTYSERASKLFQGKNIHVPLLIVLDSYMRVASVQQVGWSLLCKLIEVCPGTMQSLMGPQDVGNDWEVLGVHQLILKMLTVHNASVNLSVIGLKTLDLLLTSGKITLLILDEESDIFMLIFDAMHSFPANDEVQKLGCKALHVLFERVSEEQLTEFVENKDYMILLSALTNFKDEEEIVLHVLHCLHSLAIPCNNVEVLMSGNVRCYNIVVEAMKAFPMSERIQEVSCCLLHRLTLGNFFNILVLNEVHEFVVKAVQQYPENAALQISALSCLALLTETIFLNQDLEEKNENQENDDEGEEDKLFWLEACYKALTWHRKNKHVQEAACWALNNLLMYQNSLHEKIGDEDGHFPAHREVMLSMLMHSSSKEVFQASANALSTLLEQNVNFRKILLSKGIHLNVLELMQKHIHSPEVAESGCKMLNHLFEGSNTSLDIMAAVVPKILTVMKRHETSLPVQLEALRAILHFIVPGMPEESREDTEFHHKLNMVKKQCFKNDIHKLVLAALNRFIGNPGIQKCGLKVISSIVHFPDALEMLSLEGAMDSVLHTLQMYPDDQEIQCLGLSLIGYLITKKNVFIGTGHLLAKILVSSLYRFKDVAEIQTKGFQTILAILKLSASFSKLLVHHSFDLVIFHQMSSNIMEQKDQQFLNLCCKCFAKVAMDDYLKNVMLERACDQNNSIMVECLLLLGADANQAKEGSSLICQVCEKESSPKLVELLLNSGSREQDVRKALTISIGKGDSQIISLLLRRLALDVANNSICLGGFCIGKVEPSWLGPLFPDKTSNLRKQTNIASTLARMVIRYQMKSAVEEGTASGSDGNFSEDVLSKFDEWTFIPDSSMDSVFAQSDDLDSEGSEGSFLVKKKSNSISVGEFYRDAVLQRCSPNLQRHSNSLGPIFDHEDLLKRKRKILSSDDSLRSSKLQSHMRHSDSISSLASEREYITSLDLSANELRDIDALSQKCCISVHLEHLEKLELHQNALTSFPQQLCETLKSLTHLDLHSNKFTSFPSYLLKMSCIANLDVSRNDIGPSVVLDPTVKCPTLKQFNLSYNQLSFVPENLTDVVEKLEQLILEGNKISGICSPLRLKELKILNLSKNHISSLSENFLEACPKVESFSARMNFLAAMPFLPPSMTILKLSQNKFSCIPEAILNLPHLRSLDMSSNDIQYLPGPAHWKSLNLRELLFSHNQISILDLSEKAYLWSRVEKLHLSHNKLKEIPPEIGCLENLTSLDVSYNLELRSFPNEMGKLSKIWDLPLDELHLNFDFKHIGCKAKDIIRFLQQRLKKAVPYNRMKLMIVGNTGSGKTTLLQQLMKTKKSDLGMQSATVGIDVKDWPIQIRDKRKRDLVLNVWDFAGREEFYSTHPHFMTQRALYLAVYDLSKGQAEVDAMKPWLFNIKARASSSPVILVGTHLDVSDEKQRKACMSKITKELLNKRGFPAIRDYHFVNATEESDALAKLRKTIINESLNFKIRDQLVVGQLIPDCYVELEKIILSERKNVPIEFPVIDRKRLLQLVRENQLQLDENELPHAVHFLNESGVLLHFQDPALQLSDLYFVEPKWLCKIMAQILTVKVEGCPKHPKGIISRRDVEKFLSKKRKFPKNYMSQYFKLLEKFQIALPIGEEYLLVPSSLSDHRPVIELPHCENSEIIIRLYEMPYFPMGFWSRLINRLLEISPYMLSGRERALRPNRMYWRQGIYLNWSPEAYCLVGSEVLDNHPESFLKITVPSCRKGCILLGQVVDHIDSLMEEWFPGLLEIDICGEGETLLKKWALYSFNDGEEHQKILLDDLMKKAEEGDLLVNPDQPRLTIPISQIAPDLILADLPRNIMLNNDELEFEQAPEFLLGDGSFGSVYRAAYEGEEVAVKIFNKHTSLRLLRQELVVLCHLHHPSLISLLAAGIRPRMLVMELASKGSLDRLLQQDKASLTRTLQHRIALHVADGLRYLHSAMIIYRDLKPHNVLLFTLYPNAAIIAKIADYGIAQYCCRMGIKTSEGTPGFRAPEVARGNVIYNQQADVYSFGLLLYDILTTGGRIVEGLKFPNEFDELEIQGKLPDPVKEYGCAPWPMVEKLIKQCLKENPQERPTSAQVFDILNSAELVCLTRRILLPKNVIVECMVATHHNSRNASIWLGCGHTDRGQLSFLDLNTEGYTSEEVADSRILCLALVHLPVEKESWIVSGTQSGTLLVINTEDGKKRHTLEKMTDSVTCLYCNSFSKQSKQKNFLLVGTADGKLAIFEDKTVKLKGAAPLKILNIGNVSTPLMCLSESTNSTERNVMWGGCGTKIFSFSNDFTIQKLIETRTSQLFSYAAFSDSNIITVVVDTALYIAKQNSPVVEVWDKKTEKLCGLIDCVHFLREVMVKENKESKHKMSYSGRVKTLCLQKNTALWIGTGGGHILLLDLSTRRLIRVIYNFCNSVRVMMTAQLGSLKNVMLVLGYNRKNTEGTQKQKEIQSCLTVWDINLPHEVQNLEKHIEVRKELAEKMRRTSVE

SMILES | % enzyme activity (ALK3/BMPR1A) [%] | remaining activity at 1 µM (ALK3/BMPR1A) [%] | remaining activity at 1 µM (EPHA6) [%] | remaining activity at 1 µM (FER) [%] | % enzyme activity (IKKe/IKBKE) [%] | % enzyme activity (LRRK2) [%] | % enzyme activity (EPHB1) [%]
COc1cc(-c2cncc(-c3ccc(N4CCN(C)CC4)cc3)c2C)cc(F)c1C(N)=O [Compound 26a, 2-Fluoro-6-methoxy-4-(4-methyl-5-(4-(4-methylpiperazin-1-yl)phenyl)pyridin-3-yl)benzamide] | 40.21 | 38.4 | 105 | 89.2 | 87.51 | 59.73 | 91.99
COc1cc(-c2cncc(-c3ccc(N4C[C@@H](C)N(C)[C@@H](C)C4)cc3)c2C)cc(F)c1C(N)=O [Compound 26c, 2-Fluoro-6-methoxy-4-(4-methyl-5-(4-((3R,5S)-3,4,5-trimethylpiperazin-1-yl)phenyl)pyridin-3-yl)benzamide] | 50.46 | 50 | 106 | 86 | 94.75 | 77.27 | 89.37
